Publication PMC8406319, “The dCache Chemoreceptor TlpA of Helicobacter pylori Binds Multiple Attractant and Antagonistic Ligands via Distinct Sites” (mBio, 2021)
Where a name gives a salt, the structure may show the parent alone.

Assays:
H. pylori PMSS1 ΔtlpA = test: Temporal chemotaxis assay (direction changes), ΔtlpA mutant; assay type: cell-based, Helicobacter pylori; settings: ligands 0.1-10 mM, controls 50 μM dipyridyl, 10 mM HCl
Experimental: (§1) Cultures of H. pylori PMSS1 WT and ΔtlpA strains were grown overnight, back-diluted, and then incubated until an OD600 of 0.12 to 0.15 was reached. Cultures were treated with water (Mock) or various concentrations of compounds, as indicated. For panels C and E, the pH of cysteine, thiamine, malic acid, and α-ketoglutarate stocks was adjusted using NaOH to match the pH of the water used for the untreated control. The cells were immediately filmed, and direction changes were counted over a 3-s swimming period in at least 100 cells per treatment from 3 biological replicates. Data are normalized to the values for the untreated control for each strain, as described in Materials and Methods. Error bars represent the standard errors of the means. *, P < 0.05; **, P < 0.01; ***, P < 0.001 (comparisons to the untreated control per strain using two-way ANOVA with Dunnett’s multiple-comparison test).
To determine if chemoattractant responses toward arginine, fumarate, and cysteine were TlpA dependent, the same tracking experiments were repeated with a mutant lacking tlpA (ΔtlpA).
(§2) Swimming behavior assays were done with H. pylori PMSS1 strains grown in BB10 as described above. Cultures grown overnight were diluted to an optical density at 600 nm (OD600) of 0.1 in fresh BB10 and then incubated with shaking as described above until an OD600 of 0.12 to 0.15 was reached. […] The number of direction changes in a bacterial swimming trajectory was enumerated over a 3-s interval to determine whether each putative ligand is sensed as an attractant or repellent or elicits no response ([20], [25][–][30]). […] Each control is sensed by chemoreceptors other than TlpA ([24], [25], [29], [31]). The pH of BB10 upon treatment was independently assessed using a Denver Instruments pH meter. Prior to realizing that chemotactic responses may be due to medium acidification, we resuspended all ligands in pure water. Therefore, to be able to compare the results to those of previous experiments, we continued resuspending acidified ligands in pure water and then adjusting the pH of the resuspended ligand using NaOH. Cultures were filmed immediately after ligand addition at a ×400 magnification using a Hamamatsu C4742-95 digital camera with μManager software (version 1.4.22), mounted on a Nikon Eclipse E600 phase-contrast microscope. For the competition chemotaxis assay, cultures of H. pylori and ligands were prepared as described above. However, 1 min after the addition of a nonchemoactive ligand at a final concentration of 10 mM, a chemoactive ligand was added at a final concentration of 10 mM, and the cultures were then filmed as described above. Videos were relabeled to blind the observer to the strain identity. For each sample, >100 3-s-long bacterial tracks from three independent cultures were analyzed manually to identify stops followed by direction changes. Data for all biological replicates under each condition were combined, and the average number of direction changes in 3 s and the standard error of the mean were calculated. For each strain, data were normalized to the values for the untreated control under each experimental condition. Statistical analysis of the data for treated versus untreated samples was performed using two-way analysis of variance (ANOVA) and Dunnett’s multiple-comparison test.

TlpALBD = test: Small-molecule ligand binding array; parameters: species or system Helicobacter pylori SS1; settings: ligand binding array screen; n = 3; also: key: + for positive binding; +/− for intermediate binding; − for no binding
Experimental: Small-molecule arrays were prepared and performed as previously described ([57]). Briefly, 1 μg of purified TlpALBD in phosphate-buffered saline (PBS) (pH 7.2) was incubated with a molar concentration ratio (4:2:1) of anti-His antibody (Cell Signaling), followed by incubation with a secondary antibody (Thermo Scientific) for signal amplification. The protein-antibody mix was added to an Arrayit Superepoxy III glass substrate array blocked with PBS (pH 7.2) with 1% bovine serum albumin. […] Unbound protein was washed away with PBS with 0.05% Tween. […] Three biological replicates were performed, with a total of 12 data points for each glycan tested. Binding was classified as positive for a ligand if the relative fluorescence unit value was >1-fold above the mean background (defined as the average background of negative-control spots plus 3 standard deviations [SD]) and was statistically significant (P < 0.005 by Student’s t test). Small-molecule array slide preparation and analysis were done according to MIRAGE guidelines ([58]) (outlined in Table S5).
Classification Guidelines
1. Sample: Glycan Binding Sample
Origin: Helico bact er pyl ori SS1; produce d as a reco mbinant His -tagged protein in E.
The preparation of TlpA is exp lained in the Materials and Methods se ct ion: TlpA co nst ruct desi gn and protein purifica tion.
Sample Sample is a His Tagged protein co ntaining only the periplasm ic rece ptor domain, amino […]
Please see Materials and Methods: Li ga nd bi ndi ng arra y.
Proteins were co mplexe d with mouse anti-his antibody, with se co ndary and tertiary Alexa Fluor555 antibodies (rabbit anti-mouse , goat anti-rabbit) at a molar ratio of 4:2:1.
The protein/antibody co mplex was incu bated on ice for 10 mins prior to placi ng on the Assa y array. Arrays were performed with 1 µg of co mplexe d protein incu bated on the array for protoco l 20 min. Arrays were then wash ed 3 times in Array PBS (PBS + 2 mM MgCl2 + 2 mM CaCl2) then dried by ce ntrifugation for 3 min at 300 x g. Sca nning was performed usi ng an Innopsys InnoSca n 1100AL and analyze d usi ng Mapix (Innopsy s). Yes/ no binding was determined by si x posi tive replica te sp ots in three replica te exp eriments. […]
2.2 Small molecule Library […]
descr iption for Compounds printed in the amino aci d/small molecu le array for this st udy are list ed in […]
5.2 Small molecule array with “Map”
The array co nsi sts of triplica te su b-arrays of amino aci ds and sm all moleucl es (24 rows x 10 co lumns) with 400μm sp ot sp aci ng (ce ntre to ce ntre) with a minimum sp ot si ze of 100μm . Each sa mple is printed si x times, with each of the 3 su b-arrays incl uding at least Array layo ut si x negative co ntrol sa mples (print so lution only) and a posi tive co ntrol sa mples […]
Posi tive co ntrols provi de proof of su cce ssf ul immobiliza tion of the amine reagents and provi des for orientation for analysi s.
Sample Arrays are quality co ntrolled by a range of measu res. 1. Each printed array is post print identifica tion sca nned to co nfirm deposi tion of the sa mples on the array su rface prior to neutraliza tion and quality of the remaining sl ide su rface . 2. Post neutralize d sl ides are sca nned again to monitor co ntrol for remaining autofluoresce nce .
1. 6. Detector and Data Processing
Sca nning reso lution: […]
Sca n powers: Low lase r power. […]
analysi s Innopsys MAPIX.

TlpALBD point mutants = test: SPR binding affinity of TlpALBD point mutants relative to WT; parameters: species or system Helicobacter pylori SS1; settings: vs WT
Text: The periplasmic portion of TlpA (TlpALBD), amino acids 28 to 299, from Helicobacter pylori SS1 was cloned into a pBH4 expression vector (pBH4_TlpALBD) to generate an N-terminal 6×His-tagged construct, with a tobacco etch virus (TEV) protease site, under the control of isopropyl-β-D-thiogalactopyranoside (IPTG) ([19]). […] TlpALBD and all point mutants were purified as described previously by Sweeney et al. ([19]).
Purified TlpALBD was immobilized on a CM5 series S sensor chip, and binding affinities were tested using a Biacore S200 instrument (GE Healthcare) as described previously ([39], [57], [59]). Briefly, proteins were captured using an amine-coupling kit (GE Healthcare), in which the carboxylmethyl dextran matrix of the sensor chip was activated by the injection of a mixture of 0.2 M 1-ethyl-3-[(3-dimethylamino)propyl]-carbodiimide (EDC) and 0.05 M N-hydroxysuccinimide (NHS), followed by the neutralization of the remaining unreacted NHS ester groups by the injection of 1 M ethanolamine-HCl (pH 8.0). Purified TlpALBD was diluted in 10 mM sodium acetate buffer (pH 4.5) at a concentration of 100 μg/ml for immobilization to the chip. A total of 8,400 response units (RU) of TlpALBD were captured on flow cell 2. […] The data sets were analyzed using Biacore S200 evaluation software 2.0.2; sensorgrams were double-reference subtracted.

H. pylori PMSS1 WT = test: Temporal chemotaxis assay (live-cell video microscopy, direction changes), WT; assay type: cell-based, Helicobacter pylori
Experimental: H. pylori chemotactic responses toward the seven putative TlpA-dependent ligands were examined by a live-cell video microscopy assay that measures the temporal chemotaxis response to test ligands. […] Acidic conditions are sensed by chemoreceptors other than TlpA ([24], [29], [31]) and potentially mask chemotactic responses to the ligands being tested.
as §1, with “For panels C and E, the pH of cysteine, thiamine, malic acid, and α-ketoglutarate stocks was adjusted using NaOH to match the pH of the water used for the untreated control.” left out
as §2, with “Prior to realizing that chemotactic responses may be due to medium acidification, we resuspended all ligands in pure water.” left out

SMILES	Chemotactic response of ΔtlpA mutant (H. pylori PMSS1 ΔtlpA)	Array result (TlpALBD)	Change in binding affinity, any point mutant (TlpALBD point mutants)	Chemotactic response (direction changes vs mock) (H. pylori PMSS1 WT; WT, 0.1, 1, 10 mM tested, acidic ligand stocks pH neutralized with NaOH, 10 mM most significant)	Chemotactic response, ligand stock pH not adjusted (H. pylori PMSS1 WT; acidic in solution, unadjusted pH)
Cl [HCl, reference compound]	repellent responses				
c1ccc(-c2ccccn2)nc1 [dipyridyl, 2,2′-dipyridyl, reference compound]	significant attractant				
O=C(O)CCC(=O)C(=O)O [α-Ketoglutarate, α-ketoglutaric acid]		+	no appreciable change	no significant direction changes	significant TlpA-independent chemorepellent responses
